Data published in ChEMBL document CHEMBL4831492, “Design and synthesis of 2-(2-isonicotinoylhydrazineylidene)propanamides as InhA inhibitors with high antitubercular activity” (Eur J Med Chem, 2021).
Values after ≈ are worked out from the molar mass of the structure shown. Active and inactive are the calls of the source. The calls are words filed in the database; no cut-off is given here.

Assays:
Mycobacterium avium [1] = experiment: Antimycobacterial activity against drug resistant Mycobacterium avium 330/88 assessed as inhibition of mycobacterial growth at 500 uM incubated for 14 days; type: functional, organism-based; conditions: time 14.0 day
Mycobacterium avium [2] = experiment: Antimycobacterial activity against drug resistant Mycobacterium avium 330/88 assessed as inhibition of mycobacterial growth at 500 uM incubated for 21 days; type: functional, organism-based; conditions: time 21.0 day
Mycobacterium kansasii [3] = experiment: Antimycobacterial activity against drug resistant Mycobacterium kansasii 6509/96 assessed as minimal inhibitory concentration required for complete inhibition of mycobacterial growth incubated for 7 days; type: functional; conditions: 6509/96, 168 h, time 7 day
Mycobacterium kansasii [4] = experiment: Antimycobacterial activity against drug resistant Mycobacterium kansasii 6509/96 assessed as minimal inhibitory concentration required for complete inhibition of mycobacterial growth incubated for 21 days; type: functional; conditions: 6509/96, 504 h, time 21 day
[5] = tested on: Mycobacterium tuberculosis; experiment: Antimycobacterial activity against drug susceptible Mycobacterium tuberculosis H37Rv assessed as minimal inhibitory concentration required for complete inhibition of mycobacterial growth incubated for 21 days; type: functional; conditions: 504 h, time 21 day
Mycobacterium kansasii [6] = experiment: Antimycobacterial activity against drug resistant Mycobacterium kansasii 6509/96 assessed as minimal inhibitory concentration required for complete inhibition of mycobacterial growth incubated for 14 days; type: functional; conditions: 6509/96, 336 h, time 14 day
[7] = tested on: Mycobacterium tuberculosis; experiment: Antimycobacterial activity against drug susceptible Mycobacterium tuberculosis H37Rv assessed as minimal inhibitory concentration required for complete inhibition of mycobacterial growth incubated for 14 days; type: functional; conditions: 336 h, time 14 day
HepG2 [8] = experiment: Cytotoxicity against human HepG2 cells assessed as reduction in cell viability incubated overnight followed by compound washout by MTT assay; type: cell-based
HepG2 [9] = experiment: Cytostatic activity in human HepG2 cells assessed as reduction in cell viability incubated overnight followed by compound washout and further incubated for 72 hrs in medium containing serum by MTT assay; type: functional, cell-based; conditions: HepG2, 72 h
[10] = Selectivity index, ratio of CC50 for cytotoxicity against human HepG2 cells to MIC for antimycobacterial activity against drug susceptible Mycobacterium tuberculosis H37Rv; type: toxicity, cell-based; conditions: read-out: Selectivity Index
Mycobacterium kansasii [11] = experiment: Antimycobacterial activity against drug resistant Mycobacterium kansasii 235/80 assessed as minimal inhibitory concentration required for complete inhibition of mycobacterial growth incubated for 21 days; type: functional; conditions: 235/80, 504 h, time 21 day
Mycobacterium avium [12] = experiment: Antimycobacterial activity against drug resistant Mycobacterium avium 330/88 assessed as minimal inhibitory concentration required for complete inhibition of mycobacterial growth incubated for 14 days; type: functional; conditions: 330/88, 336 h, time 14 day
Mycobacterium kansasii [13] = experiment: Antimycobacterial activity against drug resistant Mycobacterium kansasii 235/80 assessed as minimal inhibitory concentration required for complete inhibition of mycobacterial growth incubated for 14 days; type: functional; conditions: 235/80, 336 h, time 14 day
Mycobacterium avium [14] = experiment: Antimycobacterial activity against drug resistant Mycobacterium avium 330/88 assessed as minimal inhibitory concentration required for complete inhibition of mycobacterial growth incubated for 21 days; type: functional; conditions: 330/88, 504 h, time 21 day
Mycobacterium kansasii [15] = experiment: Antimycobacterial activity against drug resistant Mycobacterium kansasii 235/80 assessed as minimal inhibitory concentration required for complete inhibition of mycobacterial growth incubated for 7 days; type: functional; conditions: 235/80, 168 h, time 7 day
[16] = Selectivity index, ratio of CC50 for cytotoxicity against human HepG2 cells to MIC for antimycobacterial activity against drug susceptible Mycobacterium […]; type: toxicity, cell-based; conditions: read-out: Selectivity Index
[17] = tested on: Mycobacterium tuberculosis; experiment: Inhibition of mycolic acid synthesis in Mycobacterium tuberculosis H37Ra assessed as decrease in production of trehalose dimycolates at MIC incubated for 24 hrs followed by 14C labelling and further incubated for 24 hrs by TLC based autoradiography analysis; type: functional, organism-based; conditions: time 48.0 hrs
[18] = tested on: Mycobacterium tuberculosis; experiment: Inhibition of mycolic acid synthesis in Mycobacterium tuberculosis H37Ra assessed as decrease in production of mycolic acid at MIC incubated for 24 hrs followed by 14C addition and further incubated for 24 hrs by TLC based autoradiography analysis; type: functional, organism-based; conditions: time 48.0 hrs
[19] = tested on: Mycobacterium tuberculosis; experiment: Antimycobacterial activity against Mycobacterium tuberculosis H37Ra carrying pMC261/pVV16 plasmid assessed as bacterial growth inhibition incubated for 28 days by drop dilution method; type: functional; conditions: 672 h, time 28 day
[20] = tested on: Mycobacterium tuberculosis; experiment: Inhibition of mycolic acid synthesis in Mycobacterium tuberculosis H37Ra assessed as decrease in production of standard fatty acid at MIC incubated for 24 hrs followed by 14C labelling and further incubated for 24 hrs by TLC based autoradiography analysis; type: functional, organism-based; conditions: time 48.0 hrs
[21] = tested on: Mycobacterium tuberculosis; experiment: Inhibition of mycolic acid synthesis in Mycobacterium tuberculosis H37Ra assessed as decrease in production of trehalose monomycolates at MIC incubated for 24 hrs followed by 14C labelling and further incubated for 24 hrs by TLC based autoradiography analysis; type: functional, organism-based; conditions: time 48.0 hrs
Mycobacterium avium [22] = experiment: Antimycobacterial activity against drug resistant Mycobacterium avium 330/88 assessed as inhibition of mycobacterial growth at 125 uM incubated for 21 days; type: functional, organism-based; conditions: time 21.0 day
Mycobacterium avium [23] = experiment: Antimycobacterial activity against drug resistant Mycobacterium avium 330/88 assessed as inhibition of mycobacterial growth at 125 uM incubated for 14 days; type: functional, organism-based; conditions: time 14.0 day

Row | Compound | MIC (Mycobacterium kansasii [3]) | MIC (Mycobacterium kansasii [4]) | MIC [5] | MIC (Mycobacterium kansasii [6]) | MIC [7] | IC50 (HepG2 [8]) | IC50 (HepG2 [9]) | selectivity ratio [10] | MIC (Mycobacterium kansasii [11]) | MIC (Mycobacterium avium [12]) | MIC (Mycobacterium kansasii [13]) | MIC (Mycobacterium avium [14]) | MIC (Mycobacterium kansasii [15]) | selectivity ratio [16] | further results
1 | C/C(=N\NC(=O)c1ccncc1)C(=O)Nc1cccc(F)c1 | 2 µM (≈ 0.601 µg/mL) | 8 µM (≈ 2.4 µg/mL) | 0.25 µM (≈ 0.0751 µg/mL) | 4 µM (≈ 1.2 µg/mL) | 0.25 µM (≈ 0.0751 µg/mL) | – | – | – | – | – | – | – | – | – | Activity (Mycobacterium avium [1]): inactive; Activity (Mycobacterium avium [2]): inactive
2 | C/C(=N\NC(=O)c1ccncc1)C(=O)Nc1cc(Cl)cc(Cl)c1 | 16 µM (≈ 5.62 µg/mL) | 32 µM (≈ 11.2 µg/mL) | 0.25 µM (≈ 0.0878 µg/mL) | 16 µM (≈ 5.62 µg/mL) | ≤ 0.25 µM | > 50 µM | > 50 µM | > 200 | > 250 µM | > 250 µM | > 250 µM | > 250 µM | > 250 µM | > 1.56 | –
3 | C/C(=N\NC(=O)c1ccncc1)C(=O)Nc1cc(Cl)c(Cl)c(Cl)c1 | 16 µM (≈ 6.17 µg/mL) | 32 µM (≈ 12.3 µg/mL) | 1 µM (≈ 0.386 µg/mL) | 16 µM (≈ 6.17 µg/mL) | 0.5 µM (≈ 0.193 µg/mL) | – | – | – | 250 µM (≈ 96.4 µg/mL) | > 250 µM | 125 µM (≈ 48.2 µg/mL) | > 250 µM | 62.5 µM (≈ 24.1 µg/mL) | – | –
4 | C/C(=N\NC(=O)c1ccncc1)C(=O)Nc1cccc(OC(F)(F)F)c1 | 4 µM (≈ 1.47 µg/mL) | 8 µM (≈ 2.93 µg/mL) | 0.5 µM (≈ 0.183 µg/mL) | 8 µM (≈ 2.93 µg/mL) | 0.125 µM (≈ 0.0458 µg/mL) | – | – | – | – | – | – | – | – | – | Activity (Mycobacterium avium [1]): inactive; Activity (Mycobacterium avium [2]): inactive
5 | C/C(=N\NC(=O)c1ccncc1)C(=O)Nc1ccc(Cl)c(Cl)c1 | 4 µM (≈ 1.4 µg/mL) | 16 µM (≈ 5.62 µg/mL) | 0.06 µM (≈ 0.0211 µg/mL) | 8 µM (≈ 2.81 µg/mL) | 0.06 µM (≈ 0.0211 µg/mL) | > 50 µM | > 50 µM | > 833 | > 250 µM | > 250 µM | > 250 µM | > 250 µM | > 250 µM | > 3.12 | –
6 | C/C(=N\NC(=O)c1ccncc1)C(=O)Nc1ccc(I)cc1 | 2 µM (≈ 0.816 µg/mL) | 4 µM (≈ 1.63 µg/mL) | 0.25 µM (≈ 0.102 µg/mL) | 4 µM (≈ 1.63 µg/mL) | 0.25 µM (≈ 0.102 µg/mL) | > 50 µM | > 50 µM | > 200 | 8 µM (≈ 3.27 µg/mL) | 250 µM (≈ 102 µg/mL) | 8 µM (≈ 3.27 µg/mL) | 250 µM (≈ 102 µg/mL) | 8 µM (≈ 3.27 µg/mL) | > 12.5 | inhibition [17]: Active; inhibition [18]: Active; MIC [19]: 0.5 µM (≈ 0.204 µg/mL); inhibition [20]: inactive; inhibition [21]: Active
7 | C/C(=N\NC(=O)c1ccncc1)C(=O)Nc1ccc(Br)cc1 | 4 µM (≈ 1.44 µg/mL) | 16 µM (≈ 5.78 µg/mL) | 0.125 µM (≈ 0.0451 µg/mL) | 8 µM (≈ 2.89 µg/mL) | 0.06 µM (≈ 0.0217 µg/mL) | > 50 µM | > 50 µM | > 400 | 16 µM (≈ 5.78 µg/mL) | 250 µM (≈ 90.3 µg/mL) | 16 µM (≈ 5.78 µg/mL) | 250 µM (≈ 90.3 µg/mL) | 16 µM (≈ 5.78 µg/mL) | > 3.12 | –
8 | C/C(=N\NC(=O)c1ccncc1)C(=O)Nc1ccc(OC(F)(F)F)cc1 | 2 µM (≈ 0.733 µg/mL) | 4 µM (≈ 1.47 µg/mL) | ≤ 0.03 µM | 2 µM (≈ 0.733 µg/mL) | ≤ 0.03 µM | > 50 µM | > 50 µM | > 1670 | 16 µM (≈ 5.86 µg/mL) | – | 8 µM (≈ 2.93 µg/mL) | – | 8 µM (≈ 2.93 µg/mL) | > 12.5 | inhibition [17]: Active; inhibition [18]: Active; MIC [19]: 0.3 µM (≈ 0.11 µg/mL); inhibition [20]: inactive; inhibition [21]: Active; Activity (Mycobacterium avium [22]): inactive; Activity (Mycobacterium avium [23]): inactive
9 | C/C(=N\NC(=O)c1ccncc1)C(=O)Nc1ccc(C(F)(F)F)cc1 | 2 µM (≈ 0.701 µg/mL) | 4 µM (≈ 1.4 µg/mL) | ≤ 0.03 µM | 4 µM (≈ 1.4 µg/mL) | ≤ 0.03 µM | > 50 µM | > 50 µM | > 1670 | 32 µM (≈ 11.2 µg/mL) | – | 16 µM (≈ 5.6 µg/mL) | – | 8 µM (≈ 2.8 µg/mL) | > 12.5 | Activity (Mycobacterium avium [22]): inactive; Activity (Mycobacterium avium [23]): inactive
10 | NNC(=O)c1ccncc1 [ISONIAZID] | 4 µM (≈ 0.549 µg/mL) | 8 µM (≈ 1.1 µg/mL) | 1 µM (≈ 0.137 µg/mL) | 8 µM (≈ 1.1 µg/mL) | 0.5 µM (≈ 0.0686 µg/mL) | – | – | – | > 250 µM | > 250 µM | > 250 µM | > 250 µM | > 250 µM | – | –
11 | C/C(=N\NC(=O)c1ccncc1)C(=O)Nc1cccc(Br)c1 | 4 µM (≈ 1.44 µg/mL) | 8 µM (≈ 2.89 µg/mL) | 0.125 µM (≈ 0.0451 µg/mL) | 8 µM (≈ 2.89 µg/mL) | 0.125 µM (≈ 0.0451 µg/mL) | – | – | – | – | > 1000 µM | – | > 1000 µM | – | – | –
